For this test, the target named is Beta-lactamase (Escherichia coli K-12, UniProt P00811). As to the kind of experiment: Inhibition of Escherichia coli AmpC assessed as nitrocefin hydrolysis by UV-Vis spectrophotometry.

Molecules are shown by their SMILES.

The results in this text go back to ChEMBL document CHEMBL1221193, “Deconstructing fragment-based inhibitor discovery” (Nat Chem Biol, 2006).

Beta-lactamase, sequence (P00811 whole entry): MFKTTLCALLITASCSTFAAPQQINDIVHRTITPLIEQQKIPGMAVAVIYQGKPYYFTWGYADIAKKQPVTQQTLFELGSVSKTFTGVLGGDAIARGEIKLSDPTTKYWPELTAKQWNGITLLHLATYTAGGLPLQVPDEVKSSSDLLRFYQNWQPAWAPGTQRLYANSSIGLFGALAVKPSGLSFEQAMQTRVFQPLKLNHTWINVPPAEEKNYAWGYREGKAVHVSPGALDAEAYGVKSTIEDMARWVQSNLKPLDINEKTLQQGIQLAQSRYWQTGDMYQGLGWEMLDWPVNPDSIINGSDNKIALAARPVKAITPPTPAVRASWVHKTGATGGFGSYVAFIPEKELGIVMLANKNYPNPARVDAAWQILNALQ

On to `O=C(O)c1ccc(NS(=O)(=O)c2ccsc2C(=O)O)c(O)c1`, for which the Ki worked out at 0.001 mM. `CS(=O)(=O)Nc1ccc(C(=O)O)cc1`: the Ki is 10 mM. `O=C(O)c1cccs1` [THIOPHENE CARBOXYLIC ACID]: the Ki came to 40 mM.
